In patent US6080542A, “Plant peptide transport gene” (priority 1997, dated 2000):
Where a SMILES comes first, the peptide text is derived from it. Where no end group is shown, it is not given here. Eth = ethionine

Experiments:
[1] = tested on: PB1X-9B; test: Growth on peptides as amino acid source, peptide transport mutant; type: cell-based, Saccharomyces cerevisiae; details: PBIX-9B; 80 μM peptide in SC medium, 30° C., 72 hrs
Experimental: (§1) In addition, untransformed PB1X-9B, PB1X-9B transformed with plasmid pJP9 encoding the above-described yeast peptide transport gene, PB1X-2AΔ and PB1X-2A, the ptr2^+ parental strain to PB1X-2AΔ strain, were also assayed. Each strain was grown overnight in SC media plus uracil (non-transformed) or minus uracil (transformed) plus amino acids to stationary phase and harvested by centrifugation. Cells were then washed twice with sterile dH2 O and resuspended at 5×10^6 cells/ml. 5 μl of each suspension was applied as a small spot to a 2 ml volume of solid media in a 24 well plate. All peptides were suspended in sterile, deionized water and added to an equal volume of SC medium plus the appropriate amino acids and uracil when required. The medium for each assay thus consisted of SC medium plus or minus uracil supplemented with 80 μM of a specific peptide and auxotrophic requirements minus the amino acid components of the added peptide. The plates were incubated at 30° C. for 72 hrs. and then scored for growth.

[2] = tested on: PB1X-9B (pJP9); test: Growth on peptides, mutant transformed with yeast peptide transport gene; type: cell-based, Saccharomyces cerevisiae; details: for growth on peptide (in words): PB1X-9B transformed with pJP9; for growth on peptide: PBIX-9B (pJP9), 80 μM peptide in SC medium, 30° C., 72 hrs
Experimental: as §1

[3] = tested on: PB1X-9B (pPTF4); test: Growth on peptides, mutant transformed with plant gene ATPTR2A; type: cell-based, Saccharomyces cerevisiae; details: PBIX-9B (pPTF4); 80 μM peptide in SC medium, 30° C., 72 hrs
Experimental: as §1

[4] = tested on: PB1X-2AΔ (pDTF1); test: Growth on peptides, deletion strain transformed with ATPTR2B; type: cell-based, Saccharomyces cerevisiae; parameters: key: +: Growth was scored as uniform colony formation; -: negative controls which showed no growth; details: PBIX-2AΔ (pDTF1); 80 μM peptide in SC medium, 30° C., 72 hrs
Experimental: as §1, with “Thus, the peptide transport mutant PB1X-9B and deletion strain PB1X-2AΔ transformed with plasmids pPTF4 (ATPTR2A) or pDTF1 (ATPTR2B) were grown on various peptides to assess the specificity of the plant peptide transporter. In” for “In”

[5] = tested on: S288C; test: Toxic peptide disk assay, wild type; type: cell-based, Saccharomyces cerevisiae; details: disk with 0.38 μmoles, lawn of 5×10^6 cells, 30° C., 1 to 2 days, mean ± standard error
Experimental: (§2) Since ptr mutants are deficient in peptide transport, they are unable to take up toxic peptides. This inability renders such mutants resistant to the toxic effect of the peptides. In order to determine whether the polynucleotides of the present invention could restore toxic peptide sensitivity to ptr2 mutants, the sensitivity of plasmid-transformed cells was determined. Sensitivity to toxic amino acids and peptides was measured as described by Island, M. D. et al. (J. Bacteriol. 169:2132-2136 (1987)). Briefly, a filter disk containing 0.38 μmoles of the toxic compound was placed on a lawn containing 5×10^6 cells and the plate incubated at 30° C. for 1 to 2 days. Resulting halos were measured across their diameter. The toxic dipeptides Leu-Eth, Ala-Eth, Leu-F-Phe and Oxalysine were synthesized by standard solution phase techniques (Naider, F. et al., J. Biol. Chem. 249:9-20 (1974). The results of this experiment are shown in Table 2 (values are the mean of the diameters of the observed zone of inhibition in millimeters±standard error of the mean of at least two independent experiments).

[6] = tested on: PB1X-9B; test: Toxic peptide disk assay, peptide transport mutant; type: cell-based, Saccharomyces cerevisiae; details: for diameter of zone of inhibition: disk with 0.38 μmoles, lawn of 5×10^6 cells, 30° C., 1 to 2 days, mean ± standard error
Experimental: as §2

[7] = tested on: PB1X-9B (pJP9); test: Toxic peptide disk assay, mutant with yeast peptide transport gene; type: cell-based, Saccharomyces cerevisiae; details: disk with 0.38 μmoles, lawn of 5×10^6 cells, 30° C., 1 to 2 days, mean ± standard error
Experimental: as §2

[8] = tested on: PB1X-9B (pPTF4); test: Toxic peptide disk assay, mutant with plant gene ATPTR2A; type: cell-based, Saccharomyces cerevisiae; details: for diameter of zone of inhibition: disk with 0.38 μmoles, lawn of 5×10^6 cells, 30° C., 1 to 2 days, mean ± standard error
Experimental: as §2

[9] = tested on: S. cerevisiae strains tested; test: Toxic peptide disk assay, statements covering several strains; type: cell-based, Saccharomyces cerevisiae; details: for sensitivity to toxic peptide: all strains tested
Experimental: as §2

[10] = tested on: A. thaliana seeds; test: Seed germination with toxic peptides (minimum inhibitory concentration); type: in vivo, Arabidopsis thaliana; details: seeds exposed to the toxic compound
Experimental: Thus, A. thaliana seeds and seedlings were exposed to Ethionine, Ala-Eth, Leu-Eth, Leu-fluorophenylalanine or oxalysine containing peptides, and the minimum inhibitory concentrations (MIC) were determined for each of the toxic compounds.
To measure the minimum inhibitory concentration of the toxic peptides, 10 to 15 A. thaliara seeds were place on solid Arabidopsis growth media with decreasing concentrations of toxic peptide. The seeds were incubated for 4 days in the dark and then scored for germination.

[11] = tested on: ATPTR2Ap; test: Uptake of L-leucyl-L-[3H]leucine and competition, PB1X-9B[pPTF4]
Experimental: The kinetics of ATPTR2A-mediated transport of peptides in yeast was evaluated by transforming pPTF4 into the S. cerevisiae peptide transport mutant, PB1X-9B and measuring the uptake of tritiated Leu-Leu dipeptide.
L-leucyl-L [^3 H]leucine trifluoroacetic acid (TFA) was synthesized by standard solution phase techniques (Naider, F. et al., J. Biol. Chem. 249:9-20 (1974)). Uptake of L-leucyl-L-[H]leucine was performed as by Island, M. D. et al (J. Bacteriol. 169:2132-2136 (1987)), with the following modifications. Cells were grown to late log phase (26×10^7 cells/ml) overnight in SC with 2% glucose, 1 mg/ml allantoin plus amino acids to supplement auxotrophic markers. To induce peptide transport. 5-15 ml from this culture was added to 100 ml fresh medium such that the density was 3.0×10^6 cells/ml. This culture was allowed to grow (approx. 2 hrs.) to a density of 6.0×10^6 cells/ml and then harvested by centrifugation. The pelleted cells were washed twice with 10 ml cold dH2 O and suspended in cold 2% glucose to a final concentration of 2×10^8 cells/ml and incubated at 30° C. for 15 min. 500 μl of cells were then added to an equal volume of reaction mixture (30° C.) and incubated at 30°-C. At 20, 40, 60, 90, and 120 sec. intervals, 190 μl portions were removed, filtered over filters (pore size, 0.45 μm; GN-6; Gelman Sciences, Inc., Ann Arbor, Mich.) and washed 2 times with 5 ml cold, sterile dH2 O and once with 5 ml dH2 O at room temperatures. Filters were placed in scintillation vials with 5 ml of Budget-Solve scintillation cocktail (Research Products International Corp., Mount Prospect, Ill.) and counted (liquid scintillation counter; LS-7000; Beckman Instruments, Inc., Fullerton, Calif.). The final concentration of the components in the uptake assay was 1% glucose, 40 mM sodium citrate-potassium phosphate buffer (pH 5.5), and 1.5×105 M L-leucyl-L-[^3 H]leucine (specific activity, 10 mCi/mmole). Uptake is expressed as nanomoles per mg dry weight.

[12] = tested on: A. thaliana seedlings; test: Root assay, toxic peptide plus competitor peptide; type: in vivo, Arabidopsis thaliana
Experimental: Approximately 15 A. thaliana seeds were placed in a row at one end of 10 cm plate containing 20 ml of Arabidopsis growth media (Kranz and Kirchheim 1987). The seeds were incubated 3-5 days in the light with the plate set in an upright position. When the roots were approximately 1-2 cm long, sterile paper filter disks were placed immediately in front of the root tips on the right and left side of the plate 2 cm from the edge of the plate. A line was drawn across the plate using the top of the disks as a guide marking zero growth. 5 μl of toxic amino acid analog, toxic peptide, or toxic peptide plus competitor was added to one disk while H2 O was place on the other disk. The plates were incubated for an additional 3-5 days. The average length of the roots was measured from the line and the results expressed as a percentage of control root growth.

[13] = PB1X-9B[pPTF4], pH 5.5, dileucine and leucine at 100-fold

Trp-His-Trp-Leu-Gln-Leu: SEQ ID NO:9 (WHWLQL)
growth on peptide [1]: -
growth on peptide (in words) [2]: showed growth on all peptides except
growth on peptide [2]: -
growth on peptide [3]: -
growth on peptide [4]: -

tetra-Lys: SEQ ID NO:5 (KKKK)
growth on peptide [1]: -
growth on peptide (in words) [2]: showed growth on all peptides except
growth on peptide [2]: -
growth on peptide [3]: -
growth on peptide [4]: -

Lys-Leu-Leu-Eth: ethionine-containing peptide of four residues
diameter of zone of inhibition [5]: 0 millimeters
diameter of zone of inhibition [6]: 0 millimeters
diameter of zone of inhibition [7]: 0 millimeters
diameter of zone of inhibition [8]: 0 millimeters
sensitivity to toxic peptide [9]: None of the strains tested were sensitive

Lys-Ala-Ala: tripeptide growth substrate (KAA)
growth on peptide [1]: -
growth on peptide [2]: +
growth on peptide [3]: +
growth on peptide [4]: +

Gly-Leu-Gly-Leu: SEQ ID NO:6 (GLGL)
growth on peptide [1]: -
growth on peptide (in words) [2]: showed growth on all peptides except
growth on peptide [2]: -
growth on peptide [3]: -

NCCOC[C@H](N)C(=O)O [Oxa-Lys, oxalysine]
root length at which growth was arrested [10]: 1-2 mm

fluorophenylalanine [F-Phe]
diameter of zone of inhibition [5]: 25.0 ± 4.0 millimeters
sensitivity or resistance to toxic compound [6]: sensitive
diameter of zone of inhibition [6]: 14.0 ± 1.0 millimeters
diameter of zone of inhibition [7]: 20.0 ± 0.0 millimeters
sensitivity or resistance to toxic compound [8]: sensitive
diameter of zone of inhibition [8]: 19.5 ± 0.5 millimeters
sensitivity to toxic compound ([9]; wild type (S288C) and transformants): less sensitive

CC(C)C[C@H](NC(=O)[C@@H](N)CC(C)C)C(=O)O [Leu-Leu, L-leucyl-L-leucine]
growth on peptide [1]: -
growth on peptide [2]: +
growth on peptide [3]: +
competition for uptake of [3H]-dileucine [11, 13]: inhibited

Lys-Leu-Leu-Leu-Eth: ethionine-containing peptide, SEQ ID NO:14 (KLLL-Eth)
diameter of zone of inhibition [5]: 0 millimeters
diameter of zone of inhibition [6]: 0 millimeters
diameter of zone of inhibition [7]: 0 millimeters
diameter of zone of inhibition [8]: 0 millimeters
sensitivity to toxic peptide [9]: None of the strains tested were sensitive

Ala-Ala-Leu: tripeptide growth substrate (AAL)
growth on peptide [1]: -
growth on peptide [2]: +
growth on peptide [3]: +

CC(C)C[C@H](N)C(=O)O [leucine]
competition for uptake of [3H]-dileucine ([11]; 3 h): no effect
competition for uptake of [3H]-dileucine [11, 13]: did not reduce uptake

CSCC[C@H](N)C(=O)O [Met]
reversal of toxicity by competitor (in words) ([12]; toxic peptide Ala-Eth): unable to reverse the inhibition
root growth with toxic peptide plus competitor ([12]; toxic peptide Ala-Eth): 0 percentage of control root gro
reversal of toxicity by competitor (in words) ([12]; toxic peptide Leu-Eth): unable to reverse the inhibition
root growth with toxic peptide plus competitor ([12]; toxic peptide Leu-Eth): 0 percentage of control root gro

Lys-Leu-Ala-Eth: ethionine-containing peptide of four residues
diameter of zone of inhibition [5]: 0 millimeters
diameter of zone of inhibition [6]: 0 millimeters
diameter of zone of inhibition [7]: 0 millimeters
diameter of zone of inhibition [8]: 0 millimeters
sensitivity to toxic peptide [9]: None of the strains tested were sensitive

Thr-Pro-Arg-Lys: SEQ ID NO:7 (TPRK)
growth on peptide [1]: -
growth on peptide (in words) [2]: showed growth on all peptides except
growth on peptide [2]: -
growth on peptide [3]: -
growth on peptide [4]: -

Lys-Leu-Leu-Ala-Eth: ethionine-containing peptide, SEQ ID NO:13 (KLLA-Eth)
diameter of zone of inhibition [5]: 0 millimeters
diameter of zone of inhibition [6]: 0 millimeters
diameter of zone of inhibition [7]: 0 millimeters
diameter of zone of inhibition [8]: 0 millimeters
sensitivity to toxic peptide [9]: None of the strains tested were sensitive

CC(C)C[C@H](NC(=O)[C@@H](N)Cc1c[nH]cn1)C(=O)O [His-Leu] (H-His-Leu-OH)
growth on peptide [1]: -
growth on peptide [2]: +
growth on peptide [3]: +

CC(C)C[C@H](NC(=O)[C@@H](N)CCCCN)C(=O)O [Lys-Leu, L-lysyl-L-leucine] (H-Lys-Leu-OH)
growth on peptide [1]: -
growth on peptide [2]: +
growth on peptide [3]: +
